Results: the supplement of paper PMC10307832

Columns and labels:
Assay in all cases: relative viability (nuclei count vs DMSO), 5 days (fraction); higher = more cells survive
[1] = compound: CC(C)C[C@H](NC(=O)[C@H](CCc1ccccc1)NC(=O)CN1CCOCC1)C(=O)N[C@@H](Cc1ccccc1)C(=O)N[C@@H](CC(C)C)C(=O)[C@@]1(C)CO1 [Carfilzomib] + CS(=O)(=O)N1CCN(Cc2cc3nc(-c4cccc5[nH]ncc45)nc(N4CCOCC4)c3s2)CC1 [Pictilisib] (partner 1 µM)
Method in brief: (§1)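 For relative viability, nuclei counts in treated wells were divided by those in vehicle wells. Lung cancer cell lines had been pin-tool dosed in 1536-well plates the day after seeding and cultured for 5 days, then fixed and stained in one step (final 0.05% Triton X-100, 1% formaldehyde, 1 ug/ml Hoechst) and imaged at 4×. Doses were one drug alone or a fixed anchor-drug dose plus five library-drug doses (not always all listed) in √10 steps, and values are duplicate-plate medians.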

[2] = compound: C[C@@H](Oc1cc(-c2cnn(C3CCNCC3)c2)cnc1N)c1c(Cl)ccc(F)c1Cl [Crizotinib] + Nc1ncn([C@H]2C[C@H](O)[C@@H](CO)O2)c(=O)n1 [Decitabine] (partner 2 µM)
Method in brief: as §1

[3] = compound: C[C@@H](Oc1cc(-c2cnn(C3CCNCC3)c2)cnc1N)c1c(Cl)ccc(F)c1Cl [Crizotinib] + CC(C)C[C@H](NC(=O)[C@H](Cc1ccccc1)NC(=O)c1cnccn1)B(O)O [Bortezomib] (partner 0.002 µM)
Method in brief: as §1

[4] = compound: CC(C)C[C@H](NC(=O)[C@H](CCc1ccccc1)NC(=O)CN1CCOCC1)C(=O)N[C@@H](Cc1ccccc1)C(=O)N[C@@H](CC(C)C)C(=O)[C@@]1(C)CO1 [Carfilzomib] + CC(=O)c1c(C)c2cnc(Nc3ccc(N4CCNCC4)cn3)nc2n(C2CCCC2)c1=O [Palbociclib] (partner 0.5 µM)
Method in brief: as §1

Work on LC-2-ad yielded a relative viability ([1]; first compound 0.001 µM) of 0.448, a relative viability ([1]; first compound 0.003162 µM) of 0.525 and a relative viability ([1]; first compound 0.01 µM) of 0.455. The relative viability ([1]; first compound 0.03162 µM) was 0.149, the relative viability ([1]; first compound 0.1 µM) was 0.16 and the relative viability ([2]; first compound 0.01 µM) was 0.846. It also gave a relative viability ([2]; first compound 0.03162 µM) of 0.896, a relative viability ([2]; first compound 0.1 µM) of 0.809 and a relative viability ([2]; first compound 1 µM) of 0.81. It also gave a relative viability ([3]; first compound 0.01 µM) of 1.06, a relative viability ([3]; first compound 0.03162 µM) of 1.07 and a relative viability ([3]; first compound 0.1 µM) of 1. The relative viability ([3]; first compound 1 µM) was 1.04, the relative viability ([4]; first compound 0.001 µM) was 0.549 and the relative viability ([4]; first compound 0.003162 µM) was 0.495. It also gave a relative viability ([4]; first compound 0.01 µM) of 0.488, a relative viability ([4]; first compound 0.03162 µM) of 0.481 and a relative viability ([4]; first compound 0.1 µM) of 0.32.
Work on LCLC-97TM1 yielded a relative viability ([1]; first compound 0.001 µM) of 0.214, a relative viability ([1]; first compound 0.003162 µM) of 0.223 and a relative viability ([1]; first compound 0.01 µM) of 0.122. For the same cell line, the relative viability ([1]; first compound 0.03162 µM) was 0.114, the relative viability ([1]; first compound 0.1 µM) was 0.116 and the relative viability ([2]; first compound 0.01 µM) was 0.214. It also gave a relative viability ([2]; first compound 0.03162 µM) of 0.235, a relative viability ([2]; first compound 0.1 µM) of 0.212 and a relative viability ([2]; first compound 0.3162 µM) of 0.248. For the same cell line, the relative viability ([2]; first compound 1 µM) was 0.303, the relative viability ([3]; first compound 0.01 µM) was 0.641 and the relative viability ([3]; first compound 0.03162 µM) was 0.601. For the same cell line, the relative viability ([3]; first compound 0.1 µM) was 1.09, the relative viability ([3]; first compound 0.3162 µM) was 0.435 and the relative viability ([3]; first compound 1 µM) was 0.519. It also gave a relative viability ([4]; first compound 0.001 µM) of 0.217, a relative viability ([4]; first compound 0.003162 µM) of 0.214 and a relative viability ([4]; first compound 0.01 µM) of 0.24. For the same cell line, the relative viability ([4]; first compound 0.03162 µM) was 0.0666 and the relative viability ([4]; first compound 0.1 µM) was 0.0679.
Work on LCLC-103H yielded a relative viability ([1]; first compound 0.001 µM) of 0.616, a relative viability ([1]; first compound 0.003162 µM) of 0.659 and a relative viability ([1]; first compound 0.01 µM) of 0.718. It also gave a relative viability ([1]; first compound 0.03162 µM) of 0.685, a relative viability ([1]; first compound 0.1 µM) of 0.347 and a relative viability ([2]; first compound 0.01 µM) of 0.672. It also gave a relative viability ([2]; first compound 0.03162 µM) of 0.759, a relative viability ([2]; first compound 0.1 µM) of 0.737 and a relative viability ([2]; first compound 0.3162 µM) of 0.754. For the same cell line, the relative viability ([2]; first compound 1 µM) was 0.723, the relative viability ([3]; first compound 0.01 µM) was 1.06 and the relative viability ([3]; first compound 0.03162 µM) was 1.04. The relative viability ([3]; first compound 0.1 µM) was 1.11, the relative viability ([3]; first compound 0.3162 µM) was 1.09 and the relative viability ([3]; first compound 1 µM) was 1.16. For the same cell line, the relative viability ([4]; first compound 0.001 µM) was 0.415, the relative viability ([4]; first compound 0.003162 µM) was 0.47 and the relative viability ([4]; first compound 0.01 µM) was 0.465. It also gave a relative viability ([4]; first compound 0.03162 µM) of 0.494 and a relative viability ([4]; first compound 0.1 µM) of 0.416.
With LOU-NH91 the relative viability ([1]; first compound 0.001 µM) was 0.51, the relative viability ([1]; first compound 0.003162 µM) was 0.525 and the relative viability ([1]; first compound 0.01 µM) was 0.477. It also gave a relative viability ([1]; first compound 0.03162 µM) of 0.312, a relative viability ([1]; first compound 0.1 µM) of 0.255 and a relative viability ([2]; first compound 0.01 µM) of 0.832. The relative viability ([2]; first compound 0.03162 µM) was 0.832, the relative viability ([2]; first compound 0.1 µM) was 0.846 and the relative viability ([2]; first compound 0.3162 µM) was 0.759. For the same cell line, the relative viability ([2]; first compound 1 µM) was 0.759, the relative viability ([3]; first compound 0.01 µM) was 0.457 and the relative viability ([3]; first compound 0.03162 µM) was 0.465. For the same cell line, the relative viability ([3]; first compound 0.1 µM) was 0.451, the relative viability ([3]; first compound 0.3162 µM) was 0.484 and the relative viability ([3]; first compound 1 µM) was 0.458. For the same cell line, the relative viability ([4]; first compound 0.001 µM) was 0.492, the relative viability ([4]; first compound 0.003162 µM) was 0.543 and the relative viability ([4]; first compound 0.01 µM) was 0.514. For the same cell line, the relative viability ([4]; first compound 0.03162 µM) was 0.363 and the relative viability ([4]; first compound 0.1 µM) was 0.314.
With LU99A the relative viability ([1]; first compound 0.001 µM) was 0.349, the relative viability ([1]; first compound 0.003162 µM) was 0.341 and the relative viability ([1]; first compound 0.01 µM) was 0.331. For the same cell line, the relative viability ([1]; first compound 0.03162 µM) was 0.238, the relative viability ([1]; first compound 0.1 µM) was 0.151 and the relative viability ([2]; first compound 0.01 µM) was 0.823. For the same cell line, the relative viability ([2]; first compound 0.03162 µM) was 0.803, the relative viability ([2]; first compound 0.1 µM) was 0.872 and the relative viability ([2]; first compound 0.3162 µM) was 0.784. The relative viability ([3]; first compound 0.01 µM) was 1.1, the relative viability ([3]; first compound 0.03162 µM) was 1.14 and the relative viability ([3]; first compound 0.1 µM) was 1.14. The relative viability ([3]; first compound 0.3162 µM) was 1.07, the relative viability ([3]; first compound 1 µM) was 1.04 and the relative viability ([4]; first compound 0.001 µM) was 0.408. For the same cell line, the relative viability ([4]; first compound 0.003162 µM) was 0.402, the relative viability ([4]; first compound 0.01 µM) was 0.439 and the relative viability ([4]; first compound 0.03162 µM) was 0.351. The relative viability ([4]; first compound 0.1 µM) was 0.188.
LXF-289 gave a relative viability ([1]; first compound 0.001 µM) of 0.753, a relative viability ([1]; first compound 0.003162 µM) of 0.776 and a relative viability ([1]; first compound 0.01 µM) of 0.644. For the same cell line, the relative viability ([1]; first compound 0.03162 µM) was 0.0604, the relative viability ([1]; first compound 0.1 µM) was 0.0625 and the relative viability ([2]; first compound 0.01 µM) was 0.325. The relative viability ([2]; first compound 0.03162 µM) was 0.394, the relative viability ([2]; first compound 0.1 µM) was 0.402 and the relative viability ([2]; first compound 0.3162 µM) was 0.344. It also gave a relative viability ([2]; first compound 1 µM) of 0.398, a relative viability ([3]; first compound 0.01 µM) of 0.917 and a relative viability ([3]; first compound 0.03162 µM) of 0.972. The relative viability ([3]; first compound 0.1 µM) was 1.01, the relative viability ([3]; first compound 0.3162 µM) was 0.85 and the relative viability ([3]; first compound 1 µM) was 0.967. The relative viability ([4]; first compound 0.001 µM) was 0.586, the relative viability ([4]; first compound 0.003162 µM) was 0.582 and the relative viability ([4]; first compound 0.01 µM) was 0.569. It also gave a relative viability ([4]; first compound 0.03162 µM) of 0.0924 and a relative viability ([4]; first compound 0.1 µM) of 0.12.
NCI-H23 gave a relative viability ([1]; first compound 0.001 µM) of 0.469, a relative viability ([1]; first compound 0.003162 µM) of 0.551 and a relative viability ([1]; first compound 0.01 µM) of 0.436. The relative viability ([1]; first compound 0.03162 µM) was 0.159, the relative viability ([1]; first compound 0.1 µM) was 0.122 and the relative viability ([2]; first compound 0.01 µM) was 0.296. For the same cell line, the relative viability ([2]; first compound 0.03162 µM) was 0.272, the relative viability ([2]; first compound 0.1 µM) was 0.331 and the relative viability ([2]; first compound 1 µM) was 0.308. For the same cell line, the relative viability ([3]; first compound 0.01 µM) was 1.02, the relative viability ([3]; first compound 0.03162 µM) was 1.09 and the relative viability ([3]; first compound 0.1 µM) was 1.03. For the same cell line, the relative viability ([3]; first compound 1 µM) was 0.979, the relative viability ([4]; first compound 0.001 µM) was 0.508 and the relative viability ([4]; first compound 0.003162 µM) was 0.484. It also gave a relative viability ([4]; first compound 0.01 µM) of 0.429, a relative viability ([4]; first compound 0.03162 µM) of 0.212 and a relative viability ([4]; first compound 0.1 µM) of 0.116.
Work on NCI-H322M yielded a relative viability ([1]; first compound 0.001 µM) of 0.491, a relative viability ([1]; first compound 0.003162 µM) of 0.507 and a relative viability ([1]; first compound 0.01 µM) of 0.567. For the same cell line, the relative viability ([1]; first compound 0.03162 µM) was 0.538, the relative viability ([1]; first compound 0.1 µM) was 0.307 and the relative viability ([2]; first compound 0.03162 µM) was 0.713. For the same cell line, the relative viability ([2]; first compound 0.1 µM) was 0.687, the relative viability ([2]; first compound 0.3162 µM) was 0.721 and the relative viability ([2]; first compound 1 µM) was 0.713. It also gave a relative viability ([3]; first compound 0.01 µM) of 1.19, a relative viability ([3]; first compound 0.03162 µM) of 1.23 and a relative viability ([3]; first compound 0.1 µM) of 1.24. It also gave a relative viability ([3]; first compound 0.3162 µM) of 1.29, a relative viability ([3]; first compound 1 µM) of 1.38 and a relative viability ([4]; first compound 0.001 µM) of 0.487. It also gave a relative viability ([4]; first compound 0.003162 µM) of 0.475, a relative viability ([4]; first compound 0.01 µM) of 0.543 and a relative viability ([4]; first compound 0.03162 µM) of 0.522. The relative viability ([4]; first compound 0.1 µM) was 0.37.
